Literature values, collected in publication PMC9369419 (International Journal of Molecular Sciences, 2022).

Columns and labels:
Settings in all cases: recombinant rat iGluR, mean ± SEM; cited from earlier work
GluA2 = target: T1, GluA2 (Rattus norvegicus, UniProt P19491)
T1 construct: made in house; host or cells: Sf9 insect cells (membranes)

GluK2 = target: T2, GluK2 (Rattus norvegicus, UniProt P42260)
T2 construct: made in house; host or cells: Sf9 insect cells (membranes)

GluK5 = target: T3, GluK5 (Rattus norvegicus, UniProt Q63273)
T3 construct: made in house; host or cells: Sf9 insect cells (membranes)
T3 sequence (Q63273 15-979): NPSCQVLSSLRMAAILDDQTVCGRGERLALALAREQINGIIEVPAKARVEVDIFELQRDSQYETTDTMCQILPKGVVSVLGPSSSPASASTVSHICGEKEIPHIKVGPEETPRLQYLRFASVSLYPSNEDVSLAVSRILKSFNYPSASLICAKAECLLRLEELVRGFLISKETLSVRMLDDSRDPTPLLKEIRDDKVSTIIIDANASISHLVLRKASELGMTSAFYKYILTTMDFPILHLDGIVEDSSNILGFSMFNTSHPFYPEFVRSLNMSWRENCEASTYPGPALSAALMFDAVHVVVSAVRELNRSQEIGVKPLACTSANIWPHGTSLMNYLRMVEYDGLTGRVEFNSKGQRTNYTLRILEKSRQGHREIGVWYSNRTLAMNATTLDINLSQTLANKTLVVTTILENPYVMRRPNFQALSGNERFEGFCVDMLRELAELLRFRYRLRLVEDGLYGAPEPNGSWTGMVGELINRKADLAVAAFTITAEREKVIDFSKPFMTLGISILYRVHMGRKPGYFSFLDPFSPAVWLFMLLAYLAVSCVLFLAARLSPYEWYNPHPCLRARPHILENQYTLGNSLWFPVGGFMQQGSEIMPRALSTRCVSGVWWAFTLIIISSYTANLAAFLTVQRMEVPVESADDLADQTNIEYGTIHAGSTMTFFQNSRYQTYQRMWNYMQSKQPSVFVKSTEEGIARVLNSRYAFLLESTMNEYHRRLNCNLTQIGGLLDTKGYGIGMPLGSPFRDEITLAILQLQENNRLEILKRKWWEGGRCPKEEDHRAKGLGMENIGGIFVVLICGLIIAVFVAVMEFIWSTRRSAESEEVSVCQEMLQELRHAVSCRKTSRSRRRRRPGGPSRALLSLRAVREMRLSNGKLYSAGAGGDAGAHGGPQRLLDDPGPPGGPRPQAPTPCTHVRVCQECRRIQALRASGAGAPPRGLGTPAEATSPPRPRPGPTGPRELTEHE

GluK1 = target: T4, GluK1 (Rattus norvegicus, UniProt P22756)
T4 construct: made in house; host or cells: Sf9 insect cells (membranes)
T4 sequence (P22756 31-949): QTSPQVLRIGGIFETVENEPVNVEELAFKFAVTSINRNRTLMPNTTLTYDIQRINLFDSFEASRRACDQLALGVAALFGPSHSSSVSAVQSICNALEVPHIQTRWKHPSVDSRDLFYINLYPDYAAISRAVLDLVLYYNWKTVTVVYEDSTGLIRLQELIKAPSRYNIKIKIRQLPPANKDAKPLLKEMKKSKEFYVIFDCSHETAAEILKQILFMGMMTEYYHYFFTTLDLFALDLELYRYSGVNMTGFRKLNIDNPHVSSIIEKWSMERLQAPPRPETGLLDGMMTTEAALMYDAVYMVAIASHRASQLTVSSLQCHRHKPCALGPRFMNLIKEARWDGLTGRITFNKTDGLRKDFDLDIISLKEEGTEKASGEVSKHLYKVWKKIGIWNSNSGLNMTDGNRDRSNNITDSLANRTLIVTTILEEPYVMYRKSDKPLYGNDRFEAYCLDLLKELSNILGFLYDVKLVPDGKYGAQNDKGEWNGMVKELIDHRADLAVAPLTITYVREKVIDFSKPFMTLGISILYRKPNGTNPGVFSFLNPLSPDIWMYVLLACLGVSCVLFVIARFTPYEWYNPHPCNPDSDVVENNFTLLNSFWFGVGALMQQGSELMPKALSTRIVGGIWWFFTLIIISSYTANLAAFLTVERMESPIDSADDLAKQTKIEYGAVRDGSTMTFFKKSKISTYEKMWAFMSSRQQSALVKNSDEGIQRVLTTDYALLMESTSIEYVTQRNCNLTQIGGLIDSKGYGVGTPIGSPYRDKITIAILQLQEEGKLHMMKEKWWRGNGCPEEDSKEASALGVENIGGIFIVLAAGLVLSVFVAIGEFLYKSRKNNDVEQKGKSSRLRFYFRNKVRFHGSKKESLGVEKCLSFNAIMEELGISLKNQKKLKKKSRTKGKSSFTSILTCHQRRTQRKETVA

GluK3 = target: T5, GluK3 (Rattus norvegicus, UniProt P42264)
T5 construct: made in house; host or cells: Sf9 insect cells (membranes)
T5 sequence (P42264 32-919): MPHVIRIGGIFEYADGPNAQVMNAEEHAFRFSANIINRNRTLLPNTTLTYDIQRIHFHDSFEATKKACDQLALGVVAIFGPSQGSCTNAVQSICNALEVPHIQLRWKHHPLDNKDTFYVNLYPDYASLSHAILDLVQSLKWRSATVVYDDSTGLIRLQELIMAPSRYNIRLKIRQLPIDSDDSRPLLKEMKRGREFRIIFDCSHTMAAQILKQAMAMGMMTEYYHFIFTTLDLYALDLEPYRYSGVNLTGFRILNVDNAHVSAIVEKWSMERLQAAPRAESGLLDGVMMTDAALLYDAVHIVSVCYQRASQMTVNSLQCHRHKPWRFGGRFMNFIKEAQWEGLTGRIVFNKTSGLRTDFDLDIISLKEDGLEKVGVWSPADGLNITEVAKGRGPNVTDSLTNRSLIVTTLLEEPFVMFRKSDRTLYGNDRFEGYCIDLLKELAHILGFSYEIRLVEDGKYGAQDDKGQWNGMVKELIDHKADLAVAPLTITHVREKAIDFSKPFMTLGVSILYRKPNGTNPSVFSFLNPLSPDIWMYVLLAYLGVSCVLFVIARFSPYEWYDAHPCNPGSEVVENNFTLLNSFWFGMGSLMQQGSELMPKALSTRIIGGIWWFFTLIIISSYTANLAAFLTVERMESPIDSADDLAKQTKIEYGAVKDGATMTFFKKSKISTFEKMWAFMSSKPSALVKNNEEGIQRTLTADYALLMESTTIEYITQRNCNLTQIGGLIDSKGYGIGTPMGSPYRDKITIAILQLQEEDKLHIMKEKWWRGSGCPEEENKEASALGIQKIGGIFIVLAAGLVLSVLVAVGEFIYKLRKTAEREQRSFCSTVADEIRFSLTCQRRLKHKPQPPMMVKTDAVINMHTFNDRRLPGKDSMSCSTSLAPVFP

T2 sequence (P42260 32-908): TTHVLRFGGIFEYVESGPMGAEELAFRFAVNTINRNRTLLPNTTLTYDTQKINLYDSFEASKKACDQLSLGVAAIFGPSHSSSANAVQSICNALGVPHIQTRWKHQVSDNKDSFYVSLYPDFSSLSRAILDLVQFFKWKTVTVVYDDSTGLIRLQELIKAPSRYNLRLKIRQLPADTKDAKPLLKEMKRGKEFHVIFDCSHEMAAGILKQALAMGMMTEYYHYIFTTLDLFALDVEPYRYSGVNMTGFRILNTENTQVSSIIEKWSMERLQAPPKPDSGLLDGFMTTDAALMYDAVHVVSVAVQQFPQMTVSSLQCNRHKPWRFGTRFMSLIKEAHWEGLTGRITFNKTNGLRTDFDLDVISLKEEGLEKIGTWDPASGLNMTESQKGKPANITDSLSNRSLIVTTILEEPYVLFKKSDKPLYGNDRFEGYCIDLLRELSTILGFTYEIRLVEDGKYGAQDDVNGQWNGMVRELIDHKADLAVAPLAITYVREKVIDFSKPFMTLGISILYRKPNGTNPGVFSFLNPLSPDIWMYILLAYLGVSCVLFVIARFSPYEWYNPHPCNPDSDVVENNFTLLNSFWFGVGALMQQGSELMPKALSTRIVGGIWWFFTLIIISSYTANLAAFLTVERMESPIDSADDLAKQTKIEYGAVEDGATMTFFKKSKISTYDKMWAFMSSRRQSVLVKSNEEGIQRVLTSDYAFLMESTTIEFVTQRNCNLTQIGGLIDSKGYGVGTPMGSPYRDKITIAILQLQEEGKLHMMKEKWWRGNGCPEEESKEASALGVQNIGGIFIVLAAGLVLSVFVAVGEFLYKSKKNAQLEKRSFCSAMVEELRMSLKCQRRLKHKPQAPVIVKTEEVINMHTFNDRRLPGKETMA
T1 sequence (P19491 22-883): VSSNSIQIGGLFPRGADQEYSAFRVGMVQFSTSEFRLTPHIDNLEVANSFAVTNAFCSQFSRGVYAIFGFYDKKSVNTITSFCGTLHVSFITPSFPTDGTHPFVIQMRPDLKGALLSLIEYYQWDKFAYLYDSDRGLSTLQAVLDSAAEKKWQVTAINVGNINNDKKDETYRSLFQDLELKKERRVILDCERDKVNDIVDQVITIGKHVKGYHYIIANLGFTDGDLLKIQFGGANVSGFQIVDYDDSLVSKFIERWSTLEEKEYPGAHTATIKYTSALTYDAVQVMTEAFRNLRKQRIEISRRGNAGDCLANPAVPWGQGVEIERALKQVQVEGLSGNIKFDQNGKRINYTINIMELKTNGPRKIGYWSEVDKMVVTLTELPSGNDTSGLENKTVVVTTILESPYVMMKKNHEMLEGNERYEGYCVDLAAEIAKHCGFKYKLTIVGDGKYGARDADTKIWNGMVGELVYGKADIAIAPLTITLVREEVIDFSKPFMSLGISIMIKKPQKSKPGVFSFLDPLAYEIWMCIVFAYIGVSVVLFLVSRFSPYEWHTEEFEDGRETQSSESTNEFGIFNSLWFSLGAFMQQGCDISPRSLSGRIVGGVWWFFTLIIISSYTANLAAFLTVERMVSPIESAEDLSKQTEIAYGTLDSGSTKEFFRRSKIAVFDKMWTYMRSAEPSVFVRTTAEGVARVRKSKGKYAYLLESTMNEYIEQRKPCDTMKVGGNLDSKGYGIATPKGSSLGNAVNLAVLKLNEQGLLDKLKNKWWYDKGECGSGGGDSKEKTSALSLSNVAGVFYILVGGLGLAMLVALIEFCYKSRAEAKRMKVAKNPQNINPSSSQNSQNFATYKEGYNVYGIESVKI

Structure (SMILES)	Ki (GluA2)	Ki (GluK2)	Ki (GluK5)	Ki (GluK1)	Ki (GluK3)
O=C(Nn1c(=O)c(=O)[nH]c2cc(C#Cc3ccccc3)ccc21)c1ccccc1 [Compound 1, N-(2,3-dioxo-6-(phenylethynyl)-3,4-dihydroquinoxalin-1(2H)-yl)benzamide]	24 ± 6 µM	~100 µM	> 100 µM	> 100 µM	–
O=c1[nH]c2cc([N+](=O)[O-])c([N+](=O)[O-])cc2[nH]c1=O [DNQX]	–	2.1 ± 0.3 µM	7.1 ± 0.9 µM	0.65 ± 0.03 µM	0.36 ± 0.03 µM
